Assay results as given in ChEMBL document CHEMBL5291721, “A preclinical secondary pharmacology resource illuminates target-adverse drug reaction associations of marketed drugs” (Nat Commun, 2023).
Where a SMILES comes first, the peptide text is derived from it.

What was measured:
Glucocorticoid receptor = biological target: T1, Glucocorticoid receptor (Homo sapiens, UniProt P04150)
T1 sequence (P04150 whole entry): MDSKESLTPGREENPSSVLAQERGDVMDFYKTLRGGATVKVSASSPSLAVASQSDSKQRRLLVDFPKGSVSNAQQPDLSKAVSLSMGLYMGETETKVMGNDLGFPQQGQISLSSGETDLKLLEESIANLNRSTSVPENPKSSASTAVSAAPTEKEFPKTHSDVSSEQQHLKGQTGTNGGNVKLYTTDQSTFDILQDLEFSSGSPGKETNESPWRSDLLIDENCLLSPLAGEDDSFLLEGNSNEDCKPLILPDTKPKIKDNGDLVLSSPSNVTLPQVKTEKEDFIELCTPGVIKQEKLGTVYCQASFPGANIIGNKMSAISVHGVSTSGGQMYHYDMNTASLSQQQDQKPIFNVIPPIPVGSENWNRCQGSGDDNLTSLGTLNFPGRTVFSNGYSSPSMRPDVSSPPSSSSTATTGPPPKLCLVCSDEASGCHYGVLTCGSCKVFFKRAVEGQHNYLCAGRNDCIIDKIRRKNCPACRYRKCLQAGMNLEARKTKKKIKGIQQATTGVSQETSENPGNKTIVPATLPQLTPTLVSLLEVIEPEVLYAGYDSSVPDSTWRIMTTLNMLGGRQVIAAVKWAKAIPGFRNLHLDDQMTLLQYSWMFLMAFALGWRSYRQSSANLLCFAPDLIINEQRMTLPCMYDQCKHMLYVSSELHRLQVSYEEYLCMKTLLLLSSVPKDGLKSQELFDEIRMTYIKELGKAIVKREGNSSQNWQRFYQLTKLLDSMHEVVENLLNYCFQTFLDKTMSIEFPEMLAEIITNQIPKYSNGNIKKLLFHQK

Vasopressin V1a receptor = Vasopressin V1a receptor (Homo sapiens, UniProt P37288)
Cannabinoid receptor 1 = Cannabinoid receptor 1 (Homo sapiens, UniProt P21554)
[1] = biological target: T2, Alpha-2C adrenergic receptor (Homo sapiens, UniProt P18825); type: functional
T2 sequence (P18825 whole entry): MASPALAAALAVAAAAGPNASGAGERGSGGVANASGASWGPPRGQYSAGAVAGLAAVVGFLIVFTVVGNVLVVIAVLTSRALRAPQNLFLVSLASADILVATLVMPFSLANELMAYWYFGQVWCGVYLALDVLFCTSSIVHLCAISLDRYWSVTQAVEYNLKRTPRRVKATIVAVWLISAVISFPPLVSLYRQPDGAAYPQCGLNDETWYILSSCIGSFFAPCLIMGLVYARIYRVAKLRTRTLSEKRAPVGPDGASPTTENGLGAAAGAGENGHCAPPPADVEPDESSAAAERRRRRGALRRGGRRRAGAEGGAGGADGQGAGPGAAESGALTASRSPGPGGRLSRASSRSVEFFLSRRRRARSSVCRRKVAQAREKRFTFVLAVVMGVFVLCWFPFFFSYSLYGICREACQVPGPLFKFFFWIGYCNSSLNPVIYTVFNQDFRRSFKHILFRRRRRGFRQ

[2] = biological target: 5-hydroxytryptamine receptor 2A (Homo sapiens, UniProt P28223); type: functional, cell-based
[3] = biological target: T3, 5-hydroxytryptamine receptor 1A (Homo sapiens, UniProt P08908); type: functional, cell-based
T3 sequence (P08908 whole entry): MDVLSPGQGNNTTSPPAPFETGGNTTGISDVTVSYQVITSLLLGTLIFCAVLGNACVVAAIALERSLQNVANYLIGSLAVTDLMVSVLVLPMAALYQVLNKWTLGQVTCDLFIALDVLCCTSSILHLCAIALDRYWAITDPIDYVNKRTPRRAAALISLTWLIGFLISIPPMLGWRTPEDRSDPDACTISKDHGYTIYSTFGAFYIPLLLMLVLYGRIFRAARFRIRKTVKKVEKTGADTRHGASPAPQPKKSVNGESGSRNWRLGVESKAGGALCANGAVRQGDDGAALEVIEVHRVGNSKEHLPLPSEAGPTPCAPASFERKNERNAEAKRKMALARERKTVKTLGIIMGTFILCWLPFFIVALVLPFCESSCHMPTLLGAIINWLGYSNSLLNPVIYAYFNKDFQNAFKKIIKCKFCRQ

[4] = biological target: T4, Muscarinic acetylcholine receptor M1 (Homo sapiens, UniProt P11229); type: functional
T4 sequence (P11229 whole entry): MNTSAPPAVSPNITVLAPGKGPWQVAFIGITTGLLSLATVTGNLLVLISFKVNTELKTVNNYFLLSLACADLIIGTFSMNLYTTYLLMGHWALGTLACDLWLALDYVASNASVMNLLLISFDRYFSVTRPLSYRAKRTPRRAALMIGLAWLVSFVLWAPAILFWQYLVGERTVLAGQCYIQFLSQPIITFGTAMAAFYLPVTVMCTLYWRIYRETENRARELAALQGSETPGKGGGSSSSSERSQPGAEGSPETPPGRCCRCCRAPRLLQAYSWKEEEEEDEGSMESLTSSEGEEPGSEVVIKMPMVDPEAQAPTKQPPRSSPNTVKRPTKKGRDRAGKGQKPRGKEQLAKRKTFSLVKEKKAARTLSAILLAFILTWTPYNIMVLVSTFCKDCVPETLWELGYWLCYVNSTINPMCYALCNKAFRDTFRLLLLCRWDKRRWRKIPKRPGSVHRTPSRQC

Mu-type opioid receptor = Mu-type opioid receptor (Homo sapiens, UniProt P35372); assay: biochemical; type: functional
[5] = biological target: Beta-2 adrenergic receptor (Homo sapiens, UniProt P07550); type: functional, cell-based
Note: assay procedure not described here.

Chain of Beta-2 adrenergic receptor (P07550 whole entry): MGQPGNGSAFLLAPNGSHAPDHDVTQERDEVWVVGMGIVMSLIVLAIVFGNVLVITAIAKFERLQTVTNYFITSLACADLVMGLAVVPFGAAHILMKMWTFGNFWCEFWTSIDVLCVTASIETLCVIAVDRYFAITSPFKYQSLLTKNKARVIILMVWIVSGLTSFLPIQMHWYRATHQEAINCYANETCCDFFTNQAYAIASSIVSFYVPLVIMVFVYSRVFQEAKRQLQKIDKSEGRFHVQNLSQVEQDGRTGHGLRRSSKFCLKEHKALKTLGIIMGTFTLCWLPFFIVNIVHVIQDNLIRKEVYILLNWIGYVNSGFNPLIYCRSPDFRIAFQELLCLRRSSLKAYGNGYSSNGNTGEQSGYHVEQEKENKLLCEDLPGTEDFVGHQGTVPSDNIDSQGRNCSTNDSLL
Chain of 5-hydroxytryptamine receptor 2A (P28223 whole entry): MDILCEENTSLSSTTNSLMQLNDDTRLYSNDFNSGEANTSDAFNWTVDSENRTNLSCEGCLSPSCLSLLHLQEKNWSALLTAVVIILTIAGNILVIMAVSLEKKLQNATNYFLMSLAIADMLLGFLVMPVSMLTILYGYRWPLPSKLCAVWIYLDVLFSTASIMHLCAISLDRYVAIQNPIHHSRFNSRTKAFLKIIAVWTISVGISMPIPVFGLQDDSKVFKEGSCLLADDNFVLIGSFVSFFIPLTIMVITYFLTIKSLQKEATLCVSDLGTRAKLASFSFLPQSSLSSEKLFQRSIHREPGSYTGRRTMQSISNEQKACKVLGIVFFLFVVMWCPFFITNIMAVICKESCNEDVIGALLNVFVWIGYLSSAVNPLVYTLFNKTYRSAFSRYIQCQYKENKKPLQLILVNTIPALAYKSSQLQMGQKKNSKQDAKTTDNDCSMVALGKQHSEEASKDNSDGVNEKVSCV
Chain of Mu-type opioid receptor (P35372 whole entry): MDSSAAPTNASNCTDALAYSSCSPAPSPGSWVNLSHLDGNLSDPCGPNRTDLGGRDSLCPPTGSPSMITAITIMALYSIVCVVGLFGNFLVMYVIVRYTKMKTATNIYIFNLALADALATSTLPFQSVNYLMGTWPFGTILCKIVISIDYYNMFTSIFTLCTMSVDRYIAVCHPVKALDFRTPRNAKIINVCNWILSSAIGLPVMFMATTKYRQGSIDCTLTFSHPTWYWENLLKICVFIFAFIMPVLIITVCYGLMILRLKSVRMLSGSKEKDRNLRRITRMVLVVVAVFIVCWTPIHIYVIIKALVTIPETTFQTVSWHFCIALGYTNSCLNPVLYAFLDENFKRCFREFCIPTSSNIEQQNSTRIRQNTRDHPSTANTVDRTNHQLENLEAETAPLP
Chain of Cannabinoid receptor 1 (P21554 whole entry): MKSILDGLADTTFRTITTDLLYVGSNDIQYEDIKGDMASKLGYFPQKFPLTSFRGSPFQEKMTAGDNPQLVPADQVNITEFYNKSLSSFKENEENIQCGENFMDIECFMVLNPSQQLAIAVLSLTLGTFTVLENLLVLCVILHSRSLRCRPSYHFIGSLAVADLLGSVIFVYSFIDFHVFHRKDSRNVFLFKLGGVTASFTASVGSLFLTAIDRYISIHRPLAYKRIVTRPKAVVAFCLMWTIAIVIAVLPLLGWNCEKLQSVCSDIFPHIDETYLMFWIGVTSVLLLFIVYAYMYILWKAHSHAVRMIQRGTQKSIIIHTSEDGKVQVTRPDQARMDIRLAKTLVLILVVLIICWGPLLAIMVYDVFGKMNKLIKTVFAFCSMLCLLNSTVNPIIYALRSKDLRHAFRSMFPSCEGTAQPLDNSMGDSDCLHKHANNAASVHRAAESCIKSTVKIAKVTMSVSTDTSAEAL
Chain of Vasopressin V1a receptor (P37288 whole entry): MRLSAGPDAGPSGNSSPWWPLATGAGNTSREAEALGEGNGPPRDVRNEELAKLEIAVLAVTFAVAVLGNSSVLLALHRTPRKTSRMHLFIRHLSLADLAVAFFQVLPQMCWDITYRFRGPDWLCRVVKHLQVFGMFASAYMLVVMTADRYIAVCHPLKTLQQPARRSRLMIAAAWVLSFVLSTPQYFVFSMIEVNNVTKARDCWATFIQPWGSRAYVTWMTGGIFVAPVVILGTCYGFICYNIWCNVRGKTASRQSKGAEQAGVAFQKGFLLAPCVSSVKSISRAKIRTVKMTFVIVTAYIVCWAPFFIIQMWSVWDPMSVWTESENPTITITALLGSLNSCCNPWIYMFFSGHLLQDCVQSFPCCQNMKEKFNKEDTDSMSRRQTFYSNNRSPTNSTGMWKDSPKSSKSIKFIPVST

Molecule	AC50 (Glucocorticoid receptor) [µM]	AC50 (Vasopressin V1a receptor) [µM]	AC50 (Cannabinoid receptor 1) [µM]	AC50 [1] [µM]	AC50 [2] [µM]	AC50 [3] [µM]	AC50 [4] [µM]	AC50 (Mu-type opioid receptor) [µM]	AC50 [5] [µM]
CC(C)CN(C[C@@H](O)[C@H](Cc1ccccc1)NC(=O)O[C@H]1CCOC1)S(=O)(=O)c1ccc(N)cc1	> 10	> 30	11.4	> 10	–	–	–	–	–
OCC(O)COc1ccc(Cl)cc1 (stereo not drawn)	> 10	> 10	> 10	> 10	> 10	> 10	> 10	–	–
C[C@H](N)C(=O)N[C@@H](CCC(N)=O)C(=O)O [ALANYL GLUTAMINE] (H-Ala-Gln-OH)	> 30	> 30	–	> 30	> 30	–	> 30	> 30	–
COc1cc(N)cn[n+]1-c1ccccc1 [AMEZINIUM METILSULFATE]	–	> 30	–	> 30	> 30	9.1	> 30	> 30	–
COc1ccc(-n2nc(C(N)=O)c3c2C(=O)N(c2ccc(N4CCCCC4=O)cc2)CC3)cc1 [APIXABAN]	–	> 30	–	> 30	–	–	> 30	–	> 30
C[C@@H](Cc1ccccc1)N(C)Cc1ccccc1 [BENZPHETAMINE]	> 10	> 10	> 10	0.68	22	–	> 10	–	–
CNCCc1ccccn1 [BETAHISTINE]	> 30	–	–	> 30	–	> 30	–	> 30	–
O=C(O)CCCC[C@@H]1SC[C@@H]2NC(=O)N[C@@H]21 [BIOTIN]	> 10	–	> 10	> 10	–	> 10	> 10	–	–
CCCCOC(=O)c1ccc(N)cc1 [BUTAMBEN]	> 30	–	–	> 30	–	> 30	–	> 30	–
CN(Cc1ccc(C(C)(C)C)cc1)Cc1cccc2ccccc12 [BUTENAFINE]	> 30	–	> 10	> 10	–	> 10	–	–	–
CO/N=C(\C(=O)N[C@@H]1C(=O)N2C(C(=O)O)=C(CSc3nc(C)c(CC(=O)O)s3)CS[C@H]12)c1csc(N)n1 [CEFODIZIME]	> 30	> 30	–	> 30	> 30	–	> 30	> 30	–
CO/N=C(\C(=O)N[C@@H]1C(=O)N2C(C(=O)[O-])=C(C[n+]3ccc(N)n3CCO)CS[C@H]12)c1csc(N)n1 [CEFOSELIS]	> 30	> 30	–	> 30	> 30	–	> 30	> 30	–
CCCO[C@H]1[C@@H]([C@@H](COCc2ccc(Cl)cc2)OCc2ccc(Cl)cc2)OC(OCC)[C@@H]1O (stereo partly drawn) [CLOBENOSIDE]	> 30	> 30	–	> 30	> 30	> 30	> 30	> 30	–
CC1CC(OC(=O)C(O)c2ccccc2)CC(C)(C)C1 (stereo not drawn) [CYCLANDELATE]	–	–	> 10	> 10	–	> 10	–	–	–
CCCCCCOC(=O)NC(=N)c1ccc(NCc2nc3cc(C(=O)N(CCC(=O)OCC)c4ccccn4)ccc3n2C)cc1 [DABIGATRAN ETEXILATE]	–	> 30	–	> 30	> 30	–	> 30	–	> 30
COC(=O)[C@H]1[C@H]2C[C@@H]3c4[nH]c5ccccc5c4CCN3C[C@H]2C[C@@H](OC(=O)c2cc(OC)c(OC)c(OC)c2)[C@@H]1OC [DESERPIDINE]	–	> 30	> 10	12	> 10	> 10	> 10	–	–
CC(=O)Oc1cccc2c1C(=O)c1c(OC(C)=O)cc(C(=O)O)cc1C2=O [DIACEREIN]	> 30	25	–	> 30	18	–	19	> 30	–
CC(=O)[C@@]1(O)CC[C@H]2[C@@H]3C[C@H](C)C4=CC(=O)C=C[C@]4(C)[C@@]3(F)[C@@H](O)C[C@@]21C [FLUOROMETHOLONE]	0.004	–	> 10	> 10	–	–	–	–	–
CC(=O)N1CCN(c2ccc(OCC3COC(Cn4ccnc4)(c4ccc(Cl)cc4Cl)O3)cc2)CC1 (stereo not drawn) [KETOCONAZOLE]	> 10	> 10	> 10	> 10	–	–	–	–	–
O=C(C[S+]([O-])Cc1ccco1)NC/C=C\COc1cc(CN2CCCCC2)ccn1 (stereo not drawn) [LAFUTIDINE]	> 10	> 10	> 10	2.6	> 30	> 30	> 10	–	–
CCC1(CC)C(=O)NC(=O)N(C)C1=O [METHARBITAL]	> 10	> 10	> 10	> 10	> 10	> 10	> 10	–	–
CC(C)(C)NCC(O)COc1cccc2c1CC(O)C(O)C2 (stereo not drawn) [NADOLOL]	> 10	–	> 10	> 10	–	–	–	–	–
CCN(CC)Cc1nccn1-c1ccc([N+](=O)[O-])cc1C(=O)c1ccccc1Cl [NIZOFENONE]	> 30	> 30	–	> 30	> 30	–	> 30	> 30	–
Nc1ccc(S(=O)(=O)Nc2ncccn2)cc1 [SULFADIAZINE]	–	–	> 10	> 10	–	> 10	–	–	–
CCCCOC(=O)C(=O)Nc1cccc(-c2nnn[nH]2)c1 [TAZANOLAST]	–	> 30	–	> 30	> 30	–	> 30	> 30	–
CC(C(=O)O)c1ccc(C(=O)c2ccccc2)s1 (stereo not drawn) [TIAPROFENIC ACID]	–	> 10	> 10	15	> 30	> 10	> 10	–	> 30
CC1=C(/C=C/C(C)=C/C=C/C(C)=C/C(=O)Oc2c(C)c(C)c3c(c2C)CCC(C)(CCCC(C)CCCC(C)CCCC(C)C)O3)C(C)(C)CCC1 (stereo not drawn) [TRETINOIN TOCOFERIL]	> 30	> 30	–	> 30	> 30	–	> 30	> 30	–
CN(C)CCOCC(=O)NC12CC3CC(CC(C3)C1)C2 [TROMANTADINE]	> 30	> 30	–	> 30	> 30	–	> 30	> 30	–
SITOSTEROLS	> 30	> 30	–	> 30	> 30	> 30	> 30	> 30	–
